According to patent US10450297B2, “Sulfonyl amide derivatives for the treatment of abnormal cell growth” (Pfizer, Inc., priority 2007, dated 2019):

biological target: FAK kinase (catalytic construct FAK(410-689)) (Homo sapiens (Human), UniProt Q05397); assay: FAKcd kinase ELISA (inhibition of poly-glu-tyr phosphorylation by FAK(410-689)); assay type: biochemical; conditions: 50 μM final ATP
Sequence (Q05397 410-689): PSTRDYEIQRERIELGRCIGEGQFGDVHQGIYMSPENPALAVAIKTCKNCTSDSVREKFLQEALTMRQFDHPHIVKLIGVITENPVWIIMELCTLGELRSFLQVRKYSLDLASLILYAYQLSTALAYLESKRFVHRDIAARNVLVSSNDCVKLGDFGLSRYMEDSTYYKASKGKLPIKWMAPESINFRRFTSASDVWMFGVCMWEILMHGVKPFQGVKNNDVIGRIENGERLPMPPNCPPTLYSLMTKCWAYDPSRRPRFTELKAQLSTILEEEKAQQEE

Structure (SMILES) | IC50 [nM]
CN(c1ncccc1CNc1nc(Nc2cccc(C(=O)N3CC[C@H](O)C3)c2)ncc1C(F)(F)F)S(C)(=O)=O [Compound 157, N-{3-[({2-[(3-{[(3S)-3-hydroxypyrrolidin-1-yl]carbonyl}phenyl)amino]-5-(trifluoromethyl)pyrimidin-4-yl}amino)methyl]pyridin-2-yl}-N-methylmethane-sulfonamide] | 4.24
CN(c1ncccc1CNc1nc(Nc2ccc(CNS(C)(=O)=O)cc2)ncc1C(F)(F)F)S(C)(=O)=O [Compound 30, N-methyl-N-{3-[({2-[(4-{[(methylsulfonyl)amino]methyl}phenyl)amino]-5-(trifluoromethyl)pyrimidin-4-yl}amino)methyl]pyridin-2-yl}methanesulfonamide] | 0.72
Cc1cccc(NS(C)(=O)=O)c1CNc1nc(Nc2ccccc2)ncc1C(F)(F)F [Compound 69, N-[2-({[2-anilino-5-(trifluoromethyl)pyrimidin-4-yl]amino}methyl)-3-methylphenyl]methane-sulfonamide] | 0.6
COC(=O)c1ccc(Nc2ncc(C(F)(F)F)c(NCc3cccc(N(C(F)F)S(C)(=O)=O)c3)n2)cc1 [Compound 321, 4-{[4-({3-[(difluoromethyl)(methyl-sulfonyl)amino]benzyl}amino)-5-(trifluoromethyl)pyrimidin-2-yl]amino}benzoate] | 119
CN(C)C1CN(C(=O)c2ccc(Nc3ncc(C(F)(F)F)c(NCc4cccnc4N(C)S(C)(=O)=O)n3)cc2)C1 [Compound 279, N-{3-[({2-[(4-{[3-(dimethylamino)azelidin-1-yl]carbonyl}phenyl)amino]-5-(trifluoromethyl)pyrimidin-4-yl}amino)methyl]pyridin-2-yl}-N-methylmethane-sulfonamide] | 3.97
CC1CCCN1C(=O)c1cccc(Nc2ncc(C(F)(F)F)c(NCc3cccnc3N(C)S(C)(=O)=O)n2)c1 (centres unmarked) [Compound 155, N-methyl-N-[3-({[2-({3-[(2-methylpyrrolidin-1-yl)carbonyl]phenyl}amino)-5-(trifluoromethyl)pyrimidin-4-yl]amino}methyl)pyridin-2-yl]methanesulfonamide] | 9.75
CN(c1ncccc1CNc1nc(Nc2cccc(C(=O)N3CCCCC3)c2)ncc1C(F)(F)F)S(C)(=O)=O [Compound 171, N-methyl-N-[3-({[2-{[3-(piperidin-1-ylcarbonyl)phenyl]amino}-5-(trifluoromethyl)pyrimidin-4-yl]amino}methyl)pyridin-2-yl]methanesulfonamide] | 7.91
CN(c1ncccc1CNc1nc(Nc2ccc(C(=O)N3CCC[C@H](O)C3)cc2)ncc1C(F)(F)F)S(C)(=O)=O [Compound 260, N-{3-[({2-[(4-{[(3S)-3-hydroxypiperidin-1-yl]carbonyl}phenyl)amino]-5-(trifluoromethyl)pyrimidin-4-yl}amino)methyl]pyridin-2-yl}-N-methylmethanesulfonamide] | 2.3
CN(c1ncccc1CNc1nc(Nc2ccc(C(=O)NC3CCCOC3)cc2)ncc1C(F)(F)F)S(C)(=O)=O (centres unmarked) [Compound 263, 4-({4-(({2-[methyl(methylsulfonyl)amino]pyridin-3-yl}methyl)amino]-5-(trifluoromethyl)pyrimidin-2-yl}amino)-N-(tetrahydro-2H-pyran-3-yl)benzamide] | 0.81
CC(=O)NCC(=O)N1CCC(Nc2ncc(C(F)(F)F)c(NCc3cccnc3N(C)S(C)(=O)=O)n2)CC1 [Compound 56, N-{2-[4-({4-[({2-[methyl(methylsulfonyl)amino]pyridin-3-yl}methyl)amino]-5-(trifluoromethyl)pyrimidin-2-yl}amino)piperidin-1-yl]-2-oxoethyl}acetamide] | 188
CN(c1ncccc1CNc1nc(Nc2ccc(C(=O)NCCCCCO)cc2)ncc1C(F)(F)F)S(C)(=O)=O [Compound 270, N-(5-hydroxypentyl)-4-({4-[({2-[methyl(methylsulfonyl)amino]pyridin-3-yl}methyl)amino]-5-(trifluoromethyl)pyrimidin-2-yl}amino)benzamide] | 0.99
CN(C)C1CN(C(=O)c2cccc(Nc3ncc(C(F)(F)F)c(NCc4cccnc4N(C)S(C)(=O)=O)n3)c2)C1 [Compound 165, N-{3-[({2-[(3-{[3-(dimethylamino)azetidin-1-yl]carbonyl}phenyl)amino]-5-(trifluoromethyl)pyrimidin-4-yl}amino)methyl]pyridin-2-yl}-N-rnethylmethane-sulfonamide] | 4.93

Results, then the molecule that gave them:

IC50 [nM] | Structure (SMILES)
0.619 | CC(O)c1ccc(Nc2ncc(C(F)(F)F)c(NCc3cccc(N(C)S(C)(=O)=O)c3)n2)cc1 (centres unmarked) [Compound 328, N-[3-({[2-{[4-(1-hydroxyethyl)phenyl]amino}-5-(trifluoromethyl)pyrimidin-4-yl]amino}methyl)phenyl]-N-methylmethanesulfonamide]
0.6 | Cc1ccnc(N(C)S(C)(=O)=O)c1CNc1nc(Nc2ccc(C(N)=O)cc2)ncc1C(F)(F)F [Compound 83, 4-({4-[({4-methyl-2-[methyl(methylsulfonyl)amino]pyrldin-3-yl}methyl)amino]-5-(trifluoromethyl)pyrimidin-2-yl}amino)benzamide]
2.26 | CN(c1nccnc1CNc1nc(Nc2cccc(C(N)=O)c2)ncc1C(F)(F)F)S(C)(=O)=O [Compound 297, 3-({4-[({3-[melhyl(methylsulfonyl)amino]pyrazin-2-yl}methyl)amino]-5-(trifluoromethyl)pyrimidin-2-yl}amino)benzamide]
2.07 | CN(c1ccnc(CNc2nc(Nc3ccc(C(N)=O)cc3)ncc2C(F)(F)F)c1)S(C)(=O)=O [Compound 404, 4-({4-[({4-[methyl(methylsulfonyl)amino]pyridin-2-yl}methyl)amino]-5-(trifluoromethyl)pyrimidin-2-yl}amino)benzamide]
< 0.595 | CN(c1cccnc1CNc1nc(Nc2ccc(C(N)=O)c(Cl)c2)ncc1C(F)(F)F)S(C)(=O)=O [Compound 359, 2-chloro-4-({4-[({3-[methyl(methylsulfonyl)amino]pyridin-2-yl}methyl)amino]-5-(trifluoromethyl)pyrimidin-2-yl}amino)benzamide]
0.784 | Cc1cc(Nc2ncc(C(F)(F)F)c(NCc3cc(N(C)S(C)(=O)=O)ccn3)n2)ccc1C(N)=O [Compound 406, 2-methyl-4-({4-[({4-[methyl(methylsulfonyl)amino]pyridin-2-yl}methyl)amino]-5-(trifluoromethyl)pyrimidin-2-yl}amino)benzamide]
0.616 | CC(N)c1ccc(Nc2ncc(C(F)(F)F)c(NCc3nccnc3N(C)S(C)(=O)=O)n2)cc1 (stereo in doubt) [Compound 351, N-[3-({[2-({4-[(1R)-1-aminoethyl]phenyl}amino)-5-(trifluoromethyl)pyrimidin-4-yl]amino}methyl)pyrazin-2-yl]-N-methylmethane-sulfonamide]
0.59 | CCOC(=O)Cc1ccc(Nc2ncc(C(F)(F)F)c(NCc3cccnc3N(C)S(C)(=O)=O)n2)cc1 [Compound 98, ethyl [4-({4-[({2-[methyl(methylsulfonyl)amino]pyridin-3-yl}methyl)amino]-5-(trifluoromethyl)pyrimidin-2-yl}amino)phenyl]acetate]
< 0.595 | Cc1cc(Nc2ncc(C(F)(F)F)c(NCc3cccc(N(C)S(C)(=O)=O)c3)n2)ccc1C(N)=O [Compound 340, 2-methyl-4-{[4-({3-[methyl(methylsulfonyl)amino]benzyl}amino)-5-(trifluoromethyl)pyrimidin-2-yl]amino}benzamide]
0.6 | CN(c1ncccc1CNc1nc(Nc2cccc(CO)c2)ncc1C(F)(F)F)S(C)(=O)=O [Compound 283, N-[3-({[2-{[3-(hydroxymethyl)phenyl]amino}-5-(trifluoromethyl)pyrimidin-4-yl]amino}methyl)pyridin-2-yl)-N-methylmethane-sulfonamide]
1.96 | CC[C@@H](CO)NC(=O)c1cccc(Nc2ncc(C(F)(F)F)c(NCc3cccnc3N(C)S(C)(=O)=O)n2)c1 [Compound 183, N-[(1S)-1-(hydroxymethyl)propyl]-3-({4-[({2-[methyl(methylsulfonyl)amino]pyridin-3-yl}methyl)amino]-5-(trifluoromethyl)pyrimidin-2-yl}amino)benzamide]
68.6 | CN(c1ncccc1CNc1nc(Nc2ccc(S(C)(=O)=O)nc2)ncc1C(F)(F)F)S(C)(=O)=O [Compound 23, N-methyl-N-[3-({[2-{[6-(methylsulfonyl)pyridin-3-yl]amino}-5-(trifluoromethyl)pyrimidin-4-yl]amino}methyl)pyridin-2-yl]methanesulfonamide]
4.55 | CN(c1cccnc1CNc1nc(Nc2ccc(F)c(C(N)=O)c2)ncc1C(F)(F)F)S(C)(=O)=O [Compound 381, 2-fluoro-5-({4-[({3-[methyl(methylsulfonyl)amino]pyridin-2-yl}methyl)amino]-5-(trifluoromethyl)pyrimidin-2-yl}amino)benzamide]
1.86 | CN(c1ncccc1CNc1nc(Nc2cccc(C(=O)NC3CC3)c2)ncc1C(F)(F)F)S(C)(=O)=O [Example 11, N-cyclopropyl-3-({4-[({2-[methyl(methylsulfonyl)amino]pyridin-3-yl}methyl)amino]-5-(trifluoromethyl)pyrimidin-2-yl}amino)benzamide]
1.21 | CN(C)CCNC(=O)c1ccc(Nc2ncc(C(F)(F)F)c(NCc3cccnc3N(C)S(C)(=O)=O)n2)cc1 [Compound 251, N-[2-(dimethylamino)ethyl]-4-({4-[({2-[methyl(methylsulfonyl)amino]pyridin-3-yl}methyl)amino]-5-(trifluoromethyl)pyrimidin-2-yl}amino)benzamide]
2.66 | CN(c1cccnc1CNc1nc(Nc2ccc(C(C)(C)O)cc2)ncc1C(F)(F)F)S(C)(=O)=O [Compound 325, N-[2-({[2-{[4-(1-hydroxy-1-methylethyl)phenyl]amino}-5-(trifluoromethyl)pyrimidin-4-yl)amino}methyl)pyridin-3-yl]-N-methylmethane-sulfonamide]
0.6 | COc1cc(Nc2ncc(C(F)(F)F)c(NCc3cccnc3N(C)S(C)(=O)=O)n2)ccn1 [Compound 93, N-{3-[({2-[(2-methoxypyridin-4-yl)amino]-5-(trifluoromethyl)pyrimidin-4-yl}amino)methyl]pyridin-2-yl}-N-methylmethane-sulfonamide]
